Data taken from ChEMBL document CHEMBL1201862, “PubChem BioAssay data set” (2004).
Active and inactive are the calls of the source.

Key:
[1] = biological target: Photoreceptor-specific nuclear receptor (Homo sapiens, UniProt Q9Y5X4); assay type: functional, cell-based;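 also: CHO-S cells with Gal4-NCOR and VP16-NR2E3 two-hybrid luciferase reporter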
Steroidogenic factor 1 = Steroidogenic factor 1 (Homo sapiens, UniProt Q13285); test: Counterscreen for inverse agonists of the liver receptor homolog-1 (LRH-1; NR5A2): Luminescence-based cell-based high throughput dose response assay to identify inverse agonists of the Steroidogenic Factor 1 Nuclear Receptor (SF1; NR5A1).; assay type: functional
[2] = nonselective StAR promoter luciferase inhibitors – cell-based, luminescence, luciferase reporter, counter-screen for LRH-1 inverse agonist project, dose response (AID 651969); assay type: functional
[3] = biological target: Nuclear receptor subfamily 5 group A member 2 (Homo sapiens, UniProt O00482); assay type: functional, cell-based;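 also: HEK293T cells transfected with LRH-1 and a StAR promoter luciferase reporter; potency for inhibitors that lower LRH-1 driven reporter light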
[4] = biological target: Mitogen-activated protein kinase 13 (Homo sapiens, UniProt O15264); assay type: functional
[5] = inhibition of ARNT PAS-B/TACC3 complex formation – biochemical, AlphaScreen, cherry-picked samples, confirmation (AID 651703); assay type: functional, Homo sapiens;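 also: His-tagged ARNT PAS-B domain paired with GST-TACC3 E629A dimer coactivator fragment; potency of inhibitors that break up the complex and lower AlphaScreen signal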
[6] = biological target: T1, Methionyl-tRNA synthetase, putative (Trypanosoma brucei brucei, UniProt Q38C91); assay type: functional, Trypanosoma brucei brucei strain 927/4 GUTat10.1
T1 sequence (Q38C91 whole entry): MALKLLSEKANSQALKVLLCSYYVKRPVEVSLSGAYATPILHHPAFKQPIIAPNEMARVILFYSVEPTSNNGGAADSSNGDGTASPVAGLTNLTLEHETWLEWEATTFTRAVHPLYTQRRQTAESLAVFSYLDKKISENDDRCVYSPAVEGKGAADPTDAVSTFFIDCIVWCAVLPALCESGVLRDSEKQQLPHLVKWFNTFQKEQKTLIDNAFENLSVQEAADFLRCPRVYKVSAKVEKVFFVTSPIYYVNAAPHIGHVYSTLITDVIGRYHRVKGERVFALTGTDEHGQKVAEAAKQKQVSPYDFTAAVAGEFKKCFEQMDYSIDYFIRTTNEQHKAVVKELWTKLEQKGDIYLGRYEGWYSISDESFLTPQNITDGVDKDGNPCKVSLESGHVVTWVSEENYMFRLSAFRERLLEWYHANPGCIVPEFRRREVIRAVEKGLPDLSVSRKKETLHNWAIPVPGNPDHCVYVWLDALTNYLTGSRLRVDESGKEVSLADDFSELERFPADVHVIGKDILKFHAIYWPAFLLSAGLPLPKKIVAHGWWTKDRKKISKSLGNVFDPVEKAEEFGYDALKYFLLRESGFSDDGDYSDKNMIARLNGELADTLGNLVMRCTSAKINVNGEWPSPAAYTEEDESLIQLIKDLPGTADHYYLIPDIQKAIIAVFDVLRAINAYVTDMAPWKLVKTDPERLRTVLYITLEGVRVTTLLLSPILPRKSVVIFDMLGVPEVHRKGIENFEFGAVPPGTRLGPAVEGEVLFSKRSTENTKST

[7] = biological target: Tyrosine-protein phosphatase non-receptor type 5 (Homo sapiens, UniProt P54829); test: PTPN5 enzyme inhibition – biochemical, fluorescence intensity, uHTS hits, confirmation (AID 602372); assay type: functional; conditions: read-out: IC50_Mean
[8] = biological target: Tyrosine-protein phosphatase non-receptor type 11 (Homo sapiens, UniProt Q06124); test: PTPN11 enzyme inhibitors – biochemical, selectivity assay for STEP inhibitor project, dose response (AID 602367); assay type: functional; conditions: read-out: IC50_Mean
[9] = biological target: T1, Methionyl-tRNA synthetase, putative; assay type: functional, Trypanosoma brucei brucei strain 927/4 GUTat10.1; remark: listed apart in the source
[10] = biological target: Dual specificity protein phosphatase 3 (Homo sapiens, UniProt P51452); test: VHR phosphatase inhibition, dose response, selectivity assay for STEP inhibitor project, biochemical (AID 602374); assay type: functional; conditions: read-out: IC50_Mean
[11] = Counterscreen for inhibitors of Trypanosoma brucei methionyl tRNA synthetase (MetRS): Luminescence-based cell-based high throughput dose response assay to identify compounds that are cytotoxic to Jurkat human T lymphocyte cells.; assay type: functional
[12] = viability of PTEN-deleted HCT116 cells – cell-based, HCT116 PTEN knockout, dose response (AID 1047); assay type: functional;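 also: HCT116 colon tumor cells with PTEN knocked out; cells exposed to compound for 60 hours before readout; potency for loss of cell viability measured by luminescence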
[13] = biological target: T2, Small ubiquitin-related modifier 1 (Homo sapiens, UniProt P63165); test: SUMO1 protein-protein binding blockers, potency – biochemical, FRET, dose response (AID 624383); assay type: functional; conditions: read-out: IC50_Mean
[14] = viability of HCT116 lacking mutant beta-catenin – cell-based, human colon tumor, dose response (AID 1045); assay type: functional;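 also: HCT116 colon tumor cells with beta catenin knocked out; cells exposed to compound for 60 hours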
[15] = HEK-293T viability loss after treatment – luminescence, T-cell screen hits, cytotoxicity control for TCR NF-kB inhibitor project, dose response (AID 489026); assay type: functional, cell-based;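 also: cells exposed to compound about 14 hours before the viability readout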
[16] = biological target: T2, Small ubiquitin-related modifier 1; test: SUMO1 protein interaction blockers, potency – biochemical, fluorescence polarization, uHTS hits, dose response (AID 624382); assay type: functional; conditions: read-out: IC50_Mean
[17] = biological target: T3, Apoptotic protease-activating factor 1 (Homo sapiens, UniProt O14727); assay type: functional
T3 sequence (O14727 whole entry): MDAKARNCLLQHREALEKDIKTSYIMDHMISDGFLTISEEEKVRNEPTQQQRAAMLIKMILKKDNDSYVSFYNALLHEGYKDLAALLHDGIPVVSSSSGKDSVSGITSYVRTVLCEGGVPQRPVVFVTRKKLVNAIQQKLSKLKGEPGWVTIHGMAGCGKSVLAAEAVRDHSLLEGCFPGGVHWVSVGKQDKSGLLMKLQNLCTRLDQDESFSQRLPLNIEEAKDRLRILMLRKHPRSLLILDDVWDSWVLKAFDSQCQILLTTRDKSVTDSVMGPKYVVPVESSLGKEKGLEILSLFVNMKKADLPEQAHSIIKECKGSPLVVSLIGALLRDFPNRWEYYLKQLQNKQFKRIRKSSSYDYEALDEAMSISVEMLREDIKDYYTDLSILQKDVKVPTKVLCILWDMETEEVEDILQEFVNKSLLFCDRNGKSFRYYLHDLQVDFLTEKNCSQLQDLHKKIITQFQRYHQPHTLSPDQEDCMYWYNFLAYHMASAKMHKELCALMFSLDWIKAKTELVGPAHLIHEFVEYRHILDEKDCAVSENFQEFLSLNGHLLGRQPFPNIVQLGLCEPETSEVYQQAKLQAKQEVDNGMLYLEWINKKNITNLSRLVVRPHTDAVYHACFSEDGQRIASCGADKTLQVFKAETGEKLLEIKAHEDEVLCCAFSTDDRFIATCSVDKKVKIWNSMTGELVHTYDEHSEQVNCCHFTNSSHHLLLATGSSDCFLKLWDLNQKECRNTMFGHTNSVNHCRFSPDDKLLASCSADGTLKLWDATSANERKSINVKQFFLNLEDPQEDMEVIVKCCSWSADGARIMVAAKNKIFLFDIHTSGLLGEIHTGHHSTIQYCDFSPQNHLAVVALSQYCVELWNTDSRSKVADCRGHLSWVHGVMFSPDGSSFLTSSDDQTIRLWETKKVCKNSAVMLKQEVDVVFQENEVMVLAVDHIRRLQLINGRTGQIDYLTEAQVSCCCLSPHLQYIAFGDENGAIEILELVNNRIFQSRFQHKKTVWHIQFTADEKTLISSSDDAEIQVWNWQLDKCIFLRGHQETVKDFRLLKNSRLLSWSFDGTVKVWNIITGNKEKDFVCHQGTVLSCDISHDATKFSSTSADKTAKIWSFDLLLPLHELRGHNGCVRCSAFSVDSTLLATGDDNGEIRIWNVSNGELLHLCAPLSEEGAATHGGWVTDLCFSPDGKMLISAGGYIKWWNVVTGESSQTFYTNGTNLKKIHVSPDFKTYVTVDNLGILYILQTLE

[18] = biological target: T4, Ubiquitin-conjugating enzyme E2 N (Homo sapiens, UniProt P61088); assay type: functional;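 also: Dose-response confirmation in a TR-FRET assay detecting UBC13-driven polyubiquitin chain formation, inhibition measured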
T4 sequence (P61088 whole entry): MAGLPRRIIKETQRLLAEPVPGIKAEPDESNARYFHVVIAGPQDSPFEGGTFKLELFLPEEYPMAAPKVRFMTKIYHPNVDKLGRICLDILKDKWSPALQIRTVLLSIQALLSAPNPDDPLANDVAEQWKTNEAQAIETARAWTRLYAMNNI

[19] = biological target: Heat shock protein HSP 90-alpha (Homo sapiens, UniProt P07900); assay type: functional, organism-based
[20] = biological target: Eukaryotic translation initiation factor 4E (Mus musculus, UniProt P63073); test: blockers of eIF4G binding by eIF4E – biochemical, TR-FRET, dose response (AID 855); assay type: functional;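 also: potency for disrupting eIF4E binding to eIF4GI seen as loss of FRET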
Sequence of Eukaryotic translation initiation factor 4E (P63073 whole entry): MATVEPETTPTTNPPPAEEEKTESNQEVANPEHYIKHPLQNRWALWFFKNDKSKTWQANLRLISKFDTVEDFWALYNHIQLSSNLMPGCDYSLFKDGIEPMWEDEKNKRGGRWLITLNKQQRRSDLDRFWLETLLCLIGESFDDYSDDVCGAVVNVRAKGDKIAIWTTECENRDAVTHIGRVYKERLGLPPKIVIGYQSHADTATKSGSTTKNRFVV

T2 sequence (P63165 whole entry): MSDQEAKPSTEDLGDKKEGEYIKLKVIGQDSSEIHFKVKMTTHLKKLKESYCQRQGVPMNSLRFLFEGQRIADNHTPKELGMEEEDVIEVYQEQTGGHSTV
Sequence of Steroidogenic factor 1 (Q13285 whole entry): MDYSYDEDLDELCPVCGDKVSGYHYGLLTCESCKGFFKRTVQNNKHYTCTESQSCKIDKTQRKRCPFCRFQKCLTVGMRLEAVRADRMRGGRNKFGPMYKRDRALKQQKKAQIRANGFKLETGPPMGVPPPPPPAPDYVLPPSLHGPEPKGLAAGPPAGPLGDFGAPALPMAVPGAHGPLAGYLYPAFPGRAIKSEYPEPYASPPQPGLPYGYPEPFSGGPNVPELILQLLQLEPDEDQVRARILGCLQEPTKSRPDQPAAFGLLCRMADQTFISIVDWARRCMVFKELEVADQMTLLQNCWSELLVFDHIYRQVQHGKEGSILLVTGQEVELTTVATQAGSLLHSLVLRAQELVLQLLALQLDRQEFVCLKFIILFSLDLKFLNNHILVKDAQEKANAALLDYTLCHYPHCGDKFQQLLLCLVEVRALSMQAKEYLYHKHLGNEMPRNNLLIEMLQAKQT
Sequence of Dual specificity protein phosphatase 3 (P51452 whole entry): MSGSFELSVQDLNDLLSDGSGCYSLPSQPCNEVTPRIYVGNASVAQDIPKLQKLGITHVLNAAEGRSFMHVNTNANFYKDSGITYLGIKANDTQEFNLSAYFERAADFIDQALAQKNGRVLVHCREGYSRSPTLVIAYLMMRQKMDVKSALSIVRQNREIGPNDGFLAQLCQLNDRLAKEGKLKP
Sequence of Nuclear receptor subfamily 5 group A member 2 (O00482 whole entry): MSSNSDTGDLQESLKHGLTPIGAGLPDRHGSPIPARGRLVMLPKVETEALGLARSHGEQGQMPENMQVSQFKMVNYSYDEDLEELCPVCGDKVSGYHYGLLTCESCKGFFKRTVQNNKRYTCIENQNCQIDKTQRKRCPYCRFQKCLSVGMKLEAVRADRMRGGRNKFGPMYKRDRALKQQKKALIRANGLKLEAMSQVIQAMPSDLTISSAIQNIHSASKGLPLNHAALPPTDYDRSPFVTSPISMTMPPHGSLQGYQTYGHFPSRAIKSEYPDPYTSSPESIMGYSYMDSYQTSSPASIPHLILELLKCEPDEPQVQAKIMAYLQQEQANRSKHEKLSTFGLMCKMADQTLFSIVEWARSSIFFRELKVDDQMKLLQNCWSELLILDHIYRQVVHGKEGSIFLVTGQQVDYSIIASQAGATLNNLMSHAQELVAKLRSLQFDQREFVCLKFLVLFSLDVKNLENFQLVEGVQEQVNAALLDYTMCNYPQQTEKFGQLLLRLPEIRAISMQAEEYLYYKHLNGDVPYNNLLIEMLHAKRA
Sequence of Mitogen-activated protein kinase 13 (O15264 whole entry, the tested form may be a part): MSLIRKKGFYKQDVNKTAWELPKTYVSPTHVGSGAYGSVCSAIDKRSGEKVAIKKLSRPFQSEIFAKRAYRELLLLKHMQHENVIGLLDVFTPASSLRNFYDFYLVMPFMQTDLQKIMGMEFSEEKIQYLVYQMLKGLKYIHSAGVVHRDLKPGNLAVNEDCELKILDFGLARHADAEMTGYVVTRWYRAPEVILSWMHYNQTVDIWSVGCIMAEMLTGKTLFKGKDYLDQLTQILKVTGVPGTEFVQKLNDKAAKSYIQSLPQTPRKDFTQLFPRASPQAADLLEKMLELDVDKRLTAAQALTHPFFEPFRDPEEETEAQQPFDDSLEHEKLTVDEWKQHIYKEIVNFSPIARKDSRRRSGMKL
Sequence of Photoreceptor-specific nuclear receptor (Q9Y5X4 whole entry, the tested form may be a part): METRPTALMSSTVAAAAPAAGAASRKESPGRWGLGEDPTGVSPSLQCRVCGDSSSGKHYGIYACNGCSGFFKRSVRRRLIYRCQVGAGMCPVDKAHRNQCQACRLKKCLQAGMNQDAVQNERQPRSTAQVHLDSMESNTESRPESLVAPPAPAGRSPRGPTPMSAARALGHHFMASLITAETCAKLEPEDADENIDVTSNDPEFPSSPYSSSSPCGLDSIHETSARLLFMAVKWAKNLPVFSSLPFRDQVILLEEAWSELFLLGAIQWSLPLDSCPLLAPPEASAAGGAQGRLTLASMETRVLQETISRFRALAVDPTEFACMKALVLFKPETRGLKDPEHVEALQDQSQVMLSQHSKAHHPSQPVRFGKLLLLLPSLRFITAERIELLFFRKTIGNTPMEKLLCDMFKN
Sequence of Tyrosine-protein phosphatase non-receptor type 5 (P54829 whole entry): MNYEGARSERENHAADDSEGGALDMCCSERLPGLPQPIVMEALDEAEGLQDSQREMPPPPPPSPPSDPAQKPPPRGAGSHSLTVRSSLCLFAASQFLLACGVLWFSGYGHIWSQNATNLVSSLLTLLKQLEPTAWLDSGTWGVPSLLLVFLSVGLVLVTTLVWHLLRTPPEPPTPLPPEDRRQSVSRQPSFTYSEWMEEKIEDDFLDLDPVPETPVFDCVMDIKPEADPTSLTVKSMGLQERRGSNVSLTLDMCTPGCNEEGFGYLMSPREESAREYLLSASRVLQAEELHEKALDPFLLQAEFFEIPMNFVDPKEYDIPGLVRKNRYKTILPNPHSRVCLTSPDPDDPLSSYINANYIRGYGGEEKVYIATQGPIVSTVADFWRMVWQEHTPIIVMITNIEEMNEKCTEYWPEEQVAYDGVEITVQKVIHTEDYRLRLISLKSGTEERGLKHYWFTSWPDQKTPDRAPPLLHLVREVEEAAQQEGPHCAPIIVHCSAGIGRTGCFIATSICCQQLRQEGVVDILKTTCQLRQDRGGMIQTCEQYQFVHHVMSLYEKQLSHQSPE
Sequence of Tyrosine-protein phosphatase non-receptor type 11 (Q06124 whole entry): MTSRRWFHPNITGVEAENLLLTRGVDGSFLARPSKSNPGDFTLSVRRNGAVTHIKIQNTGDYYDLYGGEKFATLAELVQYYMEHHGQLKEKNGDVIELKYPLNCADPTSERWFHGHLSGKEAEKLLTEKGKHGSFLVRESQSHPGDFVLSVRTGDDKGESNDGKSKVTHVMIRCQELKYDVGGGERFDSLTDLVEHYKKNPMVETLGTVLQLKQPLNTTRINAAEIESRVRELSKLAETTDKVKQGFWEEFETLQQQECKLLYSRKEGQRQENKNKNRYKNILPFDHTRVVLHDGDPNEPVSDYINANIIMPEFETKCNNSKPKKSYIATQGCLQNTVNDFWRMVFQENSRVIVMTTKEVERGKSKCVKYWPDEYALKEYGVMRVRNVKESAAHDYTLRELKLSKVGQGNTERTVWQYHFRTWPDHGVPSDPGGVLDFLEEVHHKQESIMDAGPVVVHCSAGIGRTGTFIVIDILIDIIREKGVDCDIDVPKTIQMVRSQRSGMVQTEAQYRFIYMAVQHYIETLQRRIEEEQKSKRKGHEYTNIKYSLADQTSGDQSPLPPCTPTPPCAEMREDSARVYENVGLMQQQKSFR

With `FC(F)Sc1ccc(NC(=S)N2CCN(c3ccccn3)CC2)cc1` the IC50 [1] was 2.52 µM (active).
With `CC(=O)Nc1cc(-c2ccc(F)cc2)cn2c(-c3ccc(S(C)(=O)=O)cc3)cnc12` the IC50 (Steroidogenic factor 1) was 3.15 µM (active), the IC50 [2] was 21.3 µM (inactive) and the IC50 [3] was 8.66 µM (active).
For `NC1C2CN(c3nc4c(cc3F)c(=O)c(C(=O)O)cn4-c3ccc(F)cc3F)CC12` (stereo unspecified), the Ki [4] was > 7.94 µM (inactive).
For `C[C@@H]1CN([C@H](C)CO)C(=O)c2cc(N(C)C)ccc2O[C@@H](C)CCCCO[C@@H]1CN(C)Cc1ccc2c(c1)OCO2`, the AC50 [5] was 74.9 µM (active).
For `Cc1ccc(S(=O)(=O)c2cnc3ccc(Cl)cc3c2O)cc1`, the IC50 [6] was 119 µM (inactive), the IC50 [7] was 39.1 µM (inactive) and the IC50 [8] was 14.5 µM (active). The IC50 [9] was 4.9 µM (active), the IC50 [10] was 26.9 µM (inactive) and the IC50 [11] was 83.4 µM (inactive).
For `CCCCCCCCCCCCCCCC[n+]1ccc(C(N)=O)cc1`, the EC50 [12] was 6.2 µM (active), the IC50 [13] was 13.8 µM (active) and the EC50 [14] was 6.46 µM (active). The IC50 [15] was 74.4 µM (inactive), the IC50 [16] was > 66.6 µM (inactive) and the IC50 [17] was 25.7 µM (active). For the same compound, the IC50 [18] was > 20 µM (inactive), the AC50 [19] was 8.77 µM (active) and the IC50 [20] was 25.1 µM (active).
